In brackets after ≈: the same amount, converted by molar mass.
Legend:
Type in all cases: functional
Candida albicans [1] = assay: Antimicrobial activity against Candida albicans MTCC 227 assessed as diameter of growth inhibition zone at 100 ug/ml after 48-96 hr by agar cup diffusion method; details: read-out: DIZ
Streptococcus pyogenes [2] = assay: Antimicrobial activity against Streptococcus pyogenes MTCC 442 by agar cup diffusion method
Escherichia coli [3] = assay: Antimicrobial activity against Escherichia coli MTCC 443 assessed as diameter of growth inhibition zone at 25 ug/ml after 18-24 hr by agar cup diffusion method; details: read-out: DIZ
Escherichia coli [4] = assay: Antimicrobial activity against Escherichia coli MTCC 443 by agar cup diffusion method
Klebsiella pneumoniae [5] = assay: Antimicrobial activity against Klebsiella pneumoniae MTCC 109 assessed as diameter of growth inhibition zone at 25 ug/ml after 18-24 hr by agar cup diffusion method; details: read-out: DIZ
Aspergillus clavatus [6] = assay: Antimicrobial activity against Aspergillus clavatus MTCC 1323 by agar cup diffusion method
Streptococcus pyogenes [7] = assay: Antimicrobial activity against Streptococcus pyogenes MTCC 442 assessed as diameter of growth inhibition zone at 25 ug/ml after 18-24 hr by agar cup diffusion method; details: read-out: DIZ
Aspergillus clavatus [8] = assay: Antimicrobial activity against Aspergillus clavatus MTCC 1323 assessed as diameter of growth inhibition zone at 250 ug/ml after 48-96 hr by agar cup diffusion method; details: read-out: DIZ
Candida albicans [9] = assay: Antimicrobial activity against Candida albicans MTCC 227 assessed as diameter of growth inhibition zone at 50 ug/ml after 48-96 hr by agar cup diffusion method; details: read-out: DIZ
Escherichia coli [10] = assay: Antimicrobial activity against Escherichia coli MTCC 443 assessed as diameter of growth inhibition zone at 250 ug/ml after 18-24 hr by agar cup diffusion method; details: read-out: DIZ
Pseudomonas aeruginosa [11] = assay: Antimicrobial activity against Pseudomonas aeruginosa MTCC 1688 assessed as diameter of growth inhibition zone at 100 ug/ml after 18-24 hr by agar cup diffusion method; details: read-out: DIZ
Klebsiella pneumoniae [12] = assay: Antimicrobial activity against Klebsiella pneumoniae MTCC 109 by agar cup diffusion method
Candida albicans [13] = assay: Antimicrobial activity against Candida albicans MTCC 227 by agar cup diffusion method
Staphylococcus aureus [14] = assay: Antimicrobial activity against Staphylococcus aureus MTCC 96 assessed as diameter of growth inhibition zone at 25 ug/ml after 18-24 hr by agar cup diffusion method; details: read-out: DIZ
Candida albicans [15] = assay: Antimicrobial activity against Candida albicans MTCC 227 assessed as diameter of growth inhibition zone at 25 ug/ml after 48-96 hr by agar cup diffusion method; details: read-out: DIZ
Pseudomonas aeruginosa [16] = assay: Antimicrobial activity against Pseudomonas aeruginosa MTCC 1688 assessed as diameter of growth inhibition zone at 25 ug/ml after 18-24 hr by agar cup diffusion method; details: read-out: DIZ
Penicillium [17] = assay: Antimicrobial activity against Penicillium wild strain assessed as diameter of growth inhibition zone at 100 ug/ml after 48-96 hr by agar cup diffusion method; details: read-out: DIZ
Streptococcus pyogenes [18] = assay: Antimicrobial activity against Streptococcus pyogenes MTCC 442 assessed as diameter of growth inhibition zone at 100 ug/ml after 18-24 hr by agar cup diffusion method; details: read-out: DIZ
Staphylococcus aureus [19] = assay: Antimicrobial activity against Staphylococcus aureus MTCC 96 by agar cup diffusion method
Pseudomonas aeruginosa [20] = assay: Antimicrobial activity against Pseudomonas aeruginosa MTCC 1688 by agar cup diffusion method
Trichophyton rubrum [21] = assay: Antimicrobial activity against Trichophyton rubrum MTCC 296 by agar cup diffusion method
Escherichia coli [22] = assay: Antimicrobial activity against Escherichia coli MTCC 443 assessed as diameter of growth inhibition zone at 100 ug/ml after 18-24 hr by agar cup diffusion method; details: read-out: DIZ
Penicillium [23] = assay: Antimicrobial activity against Penicillium wild strain assessed as diameter of growth inhibition zone at 250 ug/ml after 48-96 hr by agar cup diffusion method; details: read-out: DIZ
Staphylococcus aureus [24] = assay: Antimicrobial activity against Staphylococcus aureus MTCC 96 assessed as diameter of growth inhibition zone at 50 ug/ml after 18-24 hr by agar cup diffusion method; details: read-out: DIZ
Streptococcus pyogenes [25] = assay: Antimicrobial activity against Streptococcus pyogenes MTCC 442 assessed as diameter of growth inhibition zone at 50 ug/ml after 18-24 hr by agar cup diffusion method; details: read-out: DIZ
Trichophyton rubrum [26] = assay: Antimicrobial activity against Trichophyton rubrum MTCC 296 assessed as diameter of growth inhibition zone at 25 ug/ml after 48-96 hr by agar cup diffusion method; details: read-out: DIZ
Pseudomonas aeruginosa [27] = assay: Antimicrobial activity against Pseudomonas aeruginosa MTCC 1688 assessed as diameter of growth inhibition zone at 50 ug/ml after 18-24 hr by agar cup diffusion method; details: read-out: DIZ
Aspergillus clavatus [28] = assay: Antimicrobial activity against Aspergillus clavatus MTCC 1323 assessed as diameter of growth inhibition zone at 100 ug/ml after 48-96 hr by agar cup diffusion method; details: read-out: DIZ
Staphylococcus aureus [29] = assay: Antimicrobial activity against Staphylococcus aureus MTCC 96 assessed as diameter of growth inhibition zone at 100 ug/ml after 18-24 hr by agar cup diffusion method; details: read-out: DIZ
Trichophyton rubrum [30] = assay: Antimicrobial activity against Trichophyton rubrum MTCC 296 assessed as diameter of growth inhibition zone at 50 ug/ml after 48-96 hr by agar cup diffusion method; details: read-out: DIZ
Trichophyton rubrum [31] = assay: Antimicrobial activity against Trichophyton rubrum MTCC 296 assessed as diameter of growth inhibition zone at 250 ug/ml after 48-96 hr by agar cup diffusion method; details: read-out: DIZ
Aspergillus clavatus [32] = assay: Antimicrobial activity against Aspergillus clavatus MTCC 1323 assessed as diameter of growth inhibition zone at 25 ug/ml after 48-96 hr by agar cup diffusion method; details: read-out: DIZ
Klebsiella pneumoniae [33] = assay: Antimicrobial activity against Klebsiella pneumoniae MTCC 109 assessed as diameter of growth inhibition zone at 100 ug/ml after 18-24 hr by agar cup diffusion method; details: read-out: DIZ
Streptococcus pyogenes [34] = assay: Antimicrobial activity against Streptococcus pyogenes MTCC 442 assessed as diameter of growth inhibition zone at 250 ug/ml after 18-24 hr by agar cup diffusion method; details: read-out: DIZ
Penicillium [35] = assay: Antimicrobial activity against Penicillium wild strain assessed as diameter of growth inhibition zone at 50 ug/ml after 48-96 hr by agar cup diffusion method; details: read-out: DIZ
Aspergillus clavatus [36] = assay: Antimicrobial activity against Aspergillus clavatus MTCC 1323 assessed as diameter of growth inhibition zone at 50 ug/ml after 48-96 hr by agar cup diffusion method; details: read-out: DIZ
Klebsiella pneumoniae [37] = assay: Antimicrobial activity against Klebsiella pneumoniae MTCC 109 assessed as diameter of growth inhibition zone at 50 ug/ml after 18-24 hr by agar cup diffusion method; details: read-out: DIZ
Pseudomonas aeruginosa [38] = assay: Antimicrobial activity against Pseudomonas aeruginosa MTCC 1688 assessed as diameter of growth inhibition zone at 250 ug/ml after 18-24 hr by agar cup diffusion method; details: read-out: DIZ
Staphylococcus aureus [39] = assay: Antimicrobial activity against Staphylococcus aureus MTCC 96 assessed as diameter of growth inhibition zone at 250 ug/ml after 18-24 hr by agar cup diffusion method; details: read-out: DIZ
Candida albicans [40] = assay: Antimicrobial activity against Candida albicans MTCC 227 assessed as diameter of growth inhibition zone at 250 ug/ml after 48-96 hr by agar cup diffusion method; details: read-out: DIZ
Penicillium [41] = assay: Antimicrobial activity against Penicillium wild strain by agar cup diffusion method
Trichophyton rubrum [42] = assay: Antimicrobial activity against Trichophyton rubrum MTCC 296 assessed as diameter of growth inhibition zone at 100 ug/ml after 48-96 hr by agar cup diffusion method; details: read-out: DIZ
Escherichia coli [43] = assay: Antimicrobial activity against Escherichia coli MTCC 443 assessed as diameter of growth inhibition zone at 50 ug/ml after 18-24 hr by agar cup diffusion method; details: read-out: DIZ
Penicillium [44] = assay: Antimicrobial activity against Penicillium wild strain assessed as diameter of growth inhibition zone at 25 ug/ml after 48-96 hr by agar cup diffusion method; details: read-out: DIZ
Klebsiella pneumoniae [45] = assay: Antimicrobial activity against Klebsiella pneumoniae MTCC 109 assessed as diameter of growth inhibition zone at 250 ug/ml after 18-24 hr by agar cup diffusion method; details: read-out: DIZ

O=C(/C=C/c1ccc(O)cc1)C1C(=O)NC(=S)NC1=O
zone of inhibition at 100 µg/mL (Candida albicans [1]): 23 mm
MBC (Streptococcus pyogenes [2]): 250 µg/mL (≈ 861 µM)
MIC (Streptococcus pyogenes [2]): 100 µg/mL (≈ 344 µM)
zone of inhibition at 25 µg/mL (Escherichia coli [3]): 15 mm
MBC (Escherichia coli [4]): 250 µg/mL (≈ 861 µM)
MIC (Escherichia coli [4]): 250 µg/mL (≈ 861 µM)
zone of inhibition at 25 µg/mL (Klebsiella pneumoniae [5]): 10 mm
MFC (Aspergillus clavatus [6]): 500 µg/mL (≈ 1720 µM)
MIC (Aspergillus clavatus [6]): 500 µg/mL (≈ 1720 µM)
zone of inhibition at 25 µg/mL (Streptococcus pyogenes [7]): 15 mm
zone of inhibition at 250 µg/mL (Aspergillus clavatus [8]): 24 mm
zone of inhibition at 50 µg/mL (Candida albicans [9]): 20 mm
zone of inhibition at 250 µg/mL (Escherichia coli [10]): 17 mm
zone of inhibition at 100 µg/mL (Pseudomonas aeruginosa [11]): 16 mm
MBC (Klebsiella pneumoniae [12]): 200 µg/mL (≈ 689 µM)
MIC (Klebsiella pneumoniae [12]): 125 µg/mL (≈ 431 µM)
MFC (Candida albicans [13]): 500 µg/mL (≈ 1720 µM)
MIC (Candida albicans [13]): > 1000 µg/mL
zone of inhibition at 25 µg/mL (Staphylococcus aureus [14]): 10 mm
zone of inhibition at 25 µg/mL (Candida albicans [15]): 16 mm
zone of inhibition at 25 µg/mL (Pseudomonas aeruginosa [16]): 10 mm
zone of inhibition at 100 µg/mL (Penicillium [17]): 22 mm
zone of inhibition at 100 µg/mL (Streptococcus pyogenes [18]): 16 mm
MBC (Staphylococcus aureus [19]): 500 µg/mL (≈ 1720 µM)
MIC (Staphylococcus aureus [19]): 250 µg/mL (≈ 861 µM)
MBC (Pseudomonas aeruginosa [20]): 500 µg/mL (≈ 1720 µM)
MIC (Pseudomonas aeruginosa [20]): 250 µg/mL (≈ 861 µM)
MFC (Trichophyton rubrum [21]): > 1000 µg/mL
MIC (Trichophyton rubrum [21]): > 1000 µg/mL
zone of inhibition at 100 µg/mL (Escherichia coli [22]): 16 mm
zone of inhibition at 250 µg/mL (Penicillium [23]): 24 mm
zone of inhibition at 50 µg/mL (Staphylococcus aureus [24]): 14 mm
zone of inhibition at 50 µg/mL (Streptococcus pyogenes [25]): 17 mm
zone of inhibition at 25 µg/mL (Trichophyton rubrum [26]): 22 mm
zone of inhibition at 50 µg/mL (Pseudomonas aeruginosa [27]): 14 mm
zone of inhibition at 100 µg/mL (Aspergillus clavatus [28]): 22 mm
zone of inhibition at 100 µg/mL (Staphylococcus aureus [29]): 16 mm
zone of inhibition at 50 µg/mL (Trichophyton rubrum [30]): 22 mm
zone of inhibition at 250 µg/mL (Trichophyton rubrum [31]): 24 mm
zone of inhibition at 25 µg/mL (Aspergillus clavatus [32]): 21 mm
zone of inhibition at 100 µg/mL (Klebsiella pneumoniae [33]): 16 mm
zone of inhibition at 250 µg/mL (Streptococcus pyogenes [34]): 17 mm
zone of inhibition at 50 µg/mL (Penicillium [35]): 19 mm
zone of inhibition at 50 µg/mL (Aspergillus clavatus [36]): 21 mm
zone of inhibition at 50 µg/mL (Klebsiella pneumoniae [37]): 11 mm
zone of inhibition at 250 µg/mL (Pseudomonas aeruginosa [38]): 18 mm
zone of inhibition at 250 µg/mL (Staphylococcus aureus [39]): 18 mm
zone of inhibition at 250 µg/mL (Candida albicans [40]): 23 mm
MFC (Penicillium [41]): > 1000 µg/mL
MIC (Penicillium [41]): > 1000 µg/mL
zone of inhibition at 100 µg/mL (Trichophyton rubrum [42]): 24 mm
zone of inhibition at 50 µg/mL (Escherichia coli [43]): 17 mm
zone of inhibition at 25 µg/mL (Penicillium [44]): 18 mm
zone of inhibition at 250 µg/mL (Klebsiella pneumoniae [45]): 18 mm
